# Test results as given in patent US20110212199A1, “AGENT FOR TREATING EYE DISEASES” (priority 2003, published 2011).
# Assays:
# Format in all cases: in vivo, human
# [1] = test system: pigmentary retinal degeneration; test: Example 45: pigmentary retinal degeneration; details: person; 60 mg/l included in cyclodextrin, 1 drop (50 μl) twice a day for 3 months
# [2] = test system: primary open angle glaucoma; test: Example 56: primary open angle glaucoma; details: person; 10 mg/l in 2-hydroxypropyl-β-cyclodextrin and γ-cyclodextrin, 1 drop (50 μl) twice a day for a half year
# Text: It can be confirmed that administration of raloxifen with eye drops is effective for the treatment of primary open angle glaucoma.
# glaucoma = test: Example 58: glaucoma; details: person; 100 mg/l, 1 drop (50 μl) twice a day for 3 months
# Text: It can be confirmed that administration of trans-resveratrol with eye drops is effective for the treatment of glaucoma.
# cataract [3] = test: Example 62: cataract; details: person, right eye; 100 mg/l, 1 drop (50 μl) twice a day for 67 days
# normal tension glaucoma = test: Example 42: normal tension glaucoma; details: person; 100 mg/l, 1 drop (50 μl) once a day for 33 days
# Text: It can be confirmed that administration of trans-resveratrol to eyes is effective for treatment of normal tension glaucoma.
# [4] = test system: central retinal vein occlusion; test: Example 57: central retinal vein occlusion; details: person; 100 mg/l, 1 drop (50 μl) twice a day for 112 days
# Text: It can be confirmed that administration of trans-resveratrol with eye drops is effective for the treatment of central retinal vein occlusion.
# [5] = test system: Posner-Schlossmans' Syndrome (glaucoma); test: Example 40: Posner-Schlossmans' Syndrome; details: thereafter 100 mg/l eye drops, 1 drop (50 μl) once a day for 3 months
# Description: Thereafter, 1 drop (50 μl) of eye drops containing trans-resveratrol (100 mg/l) included in cyclodextrin prepared in Example 32(1) was administered once a day for 3 months, then no attack occurred for 3 months or more.
# open-angle glaucoma [6] = test: Example 41: open-angle glaucoma; details: person; 100 mg/l, 1 drop (50 μl) once a day for 14 days
# Text: It can be confirmed that administration of trans-resveratrol to eye is effective for treatment of high tension glaucoma.
# open-angle glaucoma [7] = test: Example 39: open-angle glaucoma
# Text: It can be confirmed that it is effective for treatment of high tension glaucoma to lower intraocular pressure.
# iridocyclitis = test: Example 60: iridocyclitis; details: person, right eye; 100 mg/l, 1 drop (50 μl) twice a day for 10 days
# Text: It can be confirmed that administration of trans-resveratrol is effective for the treatment of iridocyclitis.
# corneal erosion (KSD) = test: Example 36: corneal erosion; details: person; cyclodextrin-included eye drops of Example 32(1), 1 drop (50 μl) twice a day for 3 days
# cataract [8] = test: Example 38: cataract; details: 49 days
# [9] = test system: dry eye and ischemic optic neuropathy; test: Example 61: dry eye and ischemic optic neuropathy
# Text: It can be confirmed that administration of trans-resveratrol is effective for the treatment of dry eye and ischemic optic neuropathy.
# myopia = test: Example 37: myopia; details: 21 days; before 0.9
Structure (SMILES),visual field [1],visual fields by OCTOPUS 1-2-3 static perimeter [2],visual fields by OCTOPUS 1-2-3 static perimeter (glaucoma),opacity of cataract (cataract [3]),visual fields (normal tension glaucoma),"chorioretinal hemorrhage, left eye [4]",period without attack [5] [months],"visual field, left eye (open-angle glaucoma [6])","intraocular pressure ToS (open-angle glaucoma [7]; 98 days, before 22) [mmHg]","intraocular pressure ToD (open-angle glaucoma [7]; person, 100 mg/l, 1 drop (50 μl) twice a day for 98 days, before 21) [mmHG]",iridocyclitis outcome (iridocyclitis),corneal erosion symptom (corneal erosion (KSD)),"cataract opacity, slit lamp microscope (cataract [8])",corrected visual acuity Vs (cataract [8]; before 1.2),ischemic optic neuropathy ([9]; 46 days),"lacrimation and dry eye ([9]; person, 100 mg/l, 1 drop (50 μl) twice a day for 46 days)",visual acuity Vs (myopia)
O=C(c1ccc(OCCN2CCCCC2)cc1)c1c(-c2ccc(O)cc2)sc2cc(O)ccc12 [raloxifene],visual field was improved,the visual fields were improved,–,–,–,–,–,–,–,–,–,–,–,–,–,–,–
Oc1ccc(/C=C/c2cc(O)cc(O)c2)cc1 [trans-resveratrol],–,–,the visual fields were improved,opacity of cataract was reduced,visual fields were improved,chorioretinal hemorrhage was disappeared,≥ 3,visual field was improved,13,14,iridocyclitis was cured,the symptom was lightened,cataract opacity was lightened,1.5,ischemic optic neuropath was improved,"lacrimation was increased, dry eye was cured",1.2
